The text below walks through data of patent US9504746B2, “Pharmaceutical compositions of 4-(3-chloro-4-(cyclopropylaminocarbonyl)aminophenoxy)-7-methoxy-6-quinolinecarboxamide” (Eisai R&D Management Co., Ltd., priority 2004, dated 2016).

The nature of this series: pH of 5% (w/w) aqueous solution or suspension of additive. The format is physicochemical. The conditions noted are these: 5% (w/w) aqueous solution or suspension of the additive itself.
On to `O=C1O[C@H](CO)[C@@H](O)[C@H](O)[C@H]1O` [δ-Gluconolactone], for which the “pH value of 5% (w/w) aqueous solution or suspension” value came out at 2.40. For the compound `O=P([O-])([O-])O.[K+].[K+]` [Example K2HPO4, Dipotassium hydrogenphosphate], the “pH value of 5% (w/w) aqueous solution or suspension” value is listed as 9.11. Consider `[O]=[Mg]` [MgO, Magnesium oxide], for which the “pH value of 5% (w/w) aqueous solution or suspension” value was found to be 10.63. Under `NCC(=O)O` [Glycine] stands 6.17. With `CC(=O)[O-].[Na+]` [Sodium acetate], the “pH value of 5% (w/w) aqueous solution or suspension” value worked out at 8.46. On to `O=P([O-])([O-])O.[Na+].[Na+]` [Na2HPO4, Disodium hydrogenphosphate], for which the “pH value of 5% (w/w) aqueous solution or suspension” value stood at 9.26. For `O=C([O-])O.[Na+]` [NaHCO3, Sodium hydrogencarbonate], the “pH value of 5% (w/w) aqueous solution or suspension” value worked out at 8.15. In the case of `O=C([O-])[O-].[Na+].[Na+]` [Na2CO3, Sodium carbonate], the “pH value of 5% (w/w) aqueous solution or suspension” value worked out at 11.45.

As to `[Na+].[OH-]` [NaOH, Sodium hydroxide], the “pH value of 5% (w/w) aqueous solution or suspension” value stood at 13.56.

As for `O=C([O-])CC(O)(CC(=O)[O-])C(=O)[O-].[Na+].[Na+].[Na+]` [Sodium citrate], the “pH value of 5% (w/w) aqueous solution or suspension” value was 8.22.
